Source: patent publication US20040082635A1, “Fused cyclic compounds and medicinal use thereof” (priority 2001, published 2004)
Structures can show the parent of a compound that is named as a salt.

Target: T1, HCV polymerase (Hepatitis C virus genotype 1b, UniProt P26663)
T1 construct: a region encoding NS5B (591 amino acids; J Virol 1991 Mar, 65(3), 1105-13) was amplified by PCR; 6 His (N); made in house; host or cells: Escherichia coli
Assay: biochemical
Settings: read-out: HCV polymerase inhibitory activity IC50

T1 sequence (P26663 2420-3010): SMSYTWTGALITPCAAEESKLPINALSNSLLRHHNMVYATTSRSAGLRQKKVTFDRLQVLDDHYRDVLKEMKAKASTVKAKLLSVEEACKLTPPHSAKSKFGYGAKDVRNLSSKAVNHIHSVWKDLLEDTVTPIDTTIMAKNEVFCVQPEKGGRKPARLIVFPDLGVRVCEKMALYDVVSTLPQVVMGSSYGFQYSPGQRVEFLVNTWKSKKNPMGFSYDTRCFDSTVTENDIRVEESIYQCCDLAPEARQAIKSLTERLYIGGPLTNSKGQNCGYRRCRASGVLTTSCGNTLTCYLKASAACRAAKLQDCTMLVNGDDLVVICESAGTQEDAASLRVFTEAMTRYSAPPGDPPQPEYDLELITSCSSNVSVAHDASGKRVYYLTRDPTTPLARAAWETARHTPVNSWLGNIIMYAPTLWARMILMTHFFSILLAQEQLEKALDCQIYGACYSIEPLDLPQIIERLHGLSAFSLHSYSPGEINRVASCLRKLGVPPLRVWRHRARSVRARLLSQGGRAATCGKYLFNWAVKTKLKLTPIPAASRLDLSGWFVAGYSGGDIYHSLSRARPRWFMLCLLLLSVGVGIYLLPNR

| SMILES | IC50 [nM] |
| --- | --- |
| CCCN(C)C(=O)c1ccc(-c2ccc(Cl)cc2)c(COc2ccc(-c3nc4cc(C(=O)O)ccc4n3C3CCCCC3)c(F)c2)c1 [Example 385, 2-{4-[2-(4-chlorophenyl)-5-(N-methyl-N-propylcarbamoyl)-benzyloxy]-2-fluorophenyl}-1-cyclohexylbenzimidazole-5-carboxylic acid hydrochloride] | 19 |
| Cc1cnc(-c2ccc(Br)c(COc3ccc(-c4nc5cc(C(=O)O)ccc5n4C4CCCCC4)cc3)c2)s1 [Example 364, 2-{4-[2-bromo-5-(5-methylthiazol-2-yl)benzyloxy]phenyl}-1-cyclohexylbenzimidazole-5-carboxylic acid hydrochloride] | 120 |
| O=C(O)c1ccc2c(c1)nc(-c1ccc(OCc3nc(N4CCCC4=O)ccc3-c3ccc(Cl)cc3)cc1F)n2C1CCCCC1 [Example 457, 2-[4-{[3-(4-chlorophenyl)-6-(2-oxopyrrolidin-1-yl)pyridin-2-yl]methyloxy}-2-fluorophenyl]-1-cyclohexylbenzimidazole-5-carboxylic acid hydrochloride] | 15 |
| O=C(O)c1ccc2c(c1)nc(-c1ccc(OCc3cc(Cl)ccc3-c3ccc(-c4nnn[nH]4)cc3)cc1)n2C1CCCCC1 [Example 369, 2-{4-[5-chloro-2-(4-tetrazol-5-ylphenyl)benzyloxy]phenyl}-1-cyclohexylbenzimidazole-5-carboxylic acid hydrochloride] | 22 |
| O=C(O)c1ccc2c(c1)nc(-c1ccc(OCc3cc(C4=NCCN4)ccc3-c3ccc(Cl)cc3)cc1F)n2C1CCCCC1 [Example 422, 2-{4-[2-(4-chlorophenyl)-5-(2-imidazolin-2-yl)benzyloxy]-2-fluorophenyl}-1-cyclohexylbenzimidazole-5-carboxylic acid dihydrochloride] | 17 |
| O=C(O)c1ccc2c(c1)nc(-c1ccc(Oc3ccc(OCc4ccccc4)cc3)cc1)n2C1CCCCC1 [Example 132, 2-[4-(4-benzyloxyphenoxy)phenyl]-1-cyclohexylbenzimidazole-5-carboxylic acid] | 55 |
| O=C(O)c1ccc(-c2ccc(Cl)cc2COc2ccc(-c3nc4cc(-c5nnn[nH]5)ccc4n3C3CCCCC3)c(F)c2)cc1 [Example 435, 2-{4-[2-(4-carboxyphenyl)-5-chlorobenzyloxy]-2-fluorophenyl}-1-cyclohexyl-5-tetrazol-5-ylbenzimidazole hydrochloride] | 12 |
| CC(C)CCOc1cccc(Oc2ccc(-c3nc4cc(C(=O)O)ccc4n3C3CCCCC3)cc2)c1 [Example 115, 1-cyclohexyl-2-[4-(3-isopentyloxyphenoxy)phenyl]benzimidazole-5-carboxylic acid] | 170 |
| COc1ccc(COc2ccc(-c3nc4cc(C(=O)O)ccc4n3C3CCCC3)cc2)cc1 [Example 48, 1-cyclopentyl-2-[4-(4-methoxybenzyloxy)phenyl]benzimidazole-5-carboxylic acid] | 440 |
| CC(=O)Nc1ccc(-c2ccc(Cl)cc2)c(COc2ccc(-c3nc4cc(C(=O)O)ccc4n3C3CCCCC3)c(F)c2)c1 [Example 458, 2-[4-{2-(4-chlorophenyl)-5-(acetylamino)benzyloxy}-2-fluorophenyl]-1-cyclohexylbenzimidazole-5-carboxylic acid hydrochloride] | 15 |
| O=C(O)c1ccc2c(c1)nc(-c1ccc(OC(c3ccccc3)c3ccccc3)cc1)n2C1CCCC1 [Example 70, 1-cyclopentyl-2-[4-(diphenylmethoxy)phenyl]benzimidazole-5-carboxylic acid] | 190 |
| C[S+]([O-])c1ccc(-c2ccc(Cl)cc2)c(COc2ccc(-c3nc4cc(C(=O)O)ccc4n3C3CCCCC3)cc2)c1 (centres unmarked) [Example 298, 2-{4-[2-(4-chlorophenyl)-5-methylsulfinylbenzyloxy]phenyl}-1-cyclohexylbenzimidazole-5-carboxylic acid] | 11 |
| O=C(O)c1ccc2c(c1)nc(-c1ccc(OCc3cc(Cl)ccc3-c3ccccc3)cc1F)n2C1CCCCC1 [Example 146, 2-{4-(3-chloro-6-phenylbenzyloxy)-2-fluorophenyl}-1-cyclohexylbenzimidazole-5-carboxylic acid] | 43 |
| O=C(O)c1ccc(C(Oc2ccc(-c3nc4cc(C(=O)O)ccc4n3C3CCCCC3)c(F)c2)c2ccc(C(=O)O)cc2)cc1 [Example 312, 2-{4-[bis(4-carboxyphenyl)methoxy]-2-fluorophenyl}-1-cyclohexylbenzimidazole-5-carboxylic acid] | 23 |
| CC(C)NC(=O)c1ccc(-c2ccc(Cl)cc2)c(COc2ccc(-c3nc4cc(C(=O)O)ccc4n3C3CCSCC3)c(F)c2)c1 [Example 418, 2-{4-[2-(4-chlorophenyl)-5-(isopropylcarbamoyl)benzyloxy]-2-fluorophenyl}-1-(tetrahydrothiopyran-4-yl)benzimidazole-5-carboxylic acid hydrochloride] | 16 |
| O=C(O)c1ccc2c(c1)nc(-c1ccc(OCc3ccccc3-c3ccc(C(F)(F)F)cc3)cc1Cl)n2C1CCCCC1 [Example 186, 2-{2-chloro-4-[2-(4-trifluoromethylphenyl)benzyloxy]phenyl}-1-cyclohexylbenzimidazole-5-carboxylic acid] | 370 |
| CSc1ccc(-c2ccc(C(=O)N(C)C)cc2COc2ccc(-c3nc4cc(C(=O)O)ccc4n3C3CCCCC3)cc2)cc1 [Example 267, 1-cyclohexyl-2-{4-[3-dimethylcarbamoyl-6-(4-methylthiophenyl)-benzyloxy]phenyl}benzimidazole-5-carboxylic acid hydrochloride] | 14 |
| CC(C)NC(=O)c1ccc(-c2ccc(Cl)cc2)c(COc2ccc(-c3nc4cc(C(=O)O)ccc4n3C3CCCC3)c(F)c2)c1 [Example 412, 2-{4-[2-(4-chlorophenyl)-5-(isopropylcarbamoyl)benzyloxy]-2-fluorophenyl}-1-cyclopentylbenzimidazole-5-carboxylic acid hydrochloride] | 19 |
| O=C(O)c1ccc2c(c1)nc(-c1ccc(Oc3ccc(OCc4ccccc4)cc3)cc1Cl)n2C1CCCCC1 [Example 149, 2-{4-(4-benzyloxyphenoxy)-2-chlorophenyl}-1-cyclohexylbenzimidazole-5-carboxylic acid] | 150 |
| CC(C)C(=O)N(C)c1ccc(-c2ccc(Cl)cc2)c(COc2ccc(-c3nc4cc(C(=O)O)ccc4n3C3CCCCC3)c(F)c2)c1 [Example 451, 2-[4-{2-(4-chlorophenyl)-5-(N-isopropylcarbonyl-N-methylamino)benzyloxy}-2-fluorophenyl]-1-cyclohexylbenzimidazole-5-carboxylic acid hydrochloride] | 31 |
| CC(C)N(C)C(=O)c1ccc(-c2ccc(Cl)cc2)c(COc2ccc(-c3nc4cc(C(=O)O)ccc4n3C3CCCCC3)cc2)c1 [Example 331, 2-{4-[2-(4-chlorophenyl)-5-(N-isopropyl-N-methylcarbamoyl)-benzyloxy]phenyl}-1-cyclohexylbenzimidazole-5-carboxylic acid hydrochloride] | 17 |
| O=C(O)c1ccc2c(c1)nc(-c1ccc(OCCCCCc3ccccc3)cc1)n2C1CCCCC1 [Example 98, 1-cyclohexyl-2-[4-(5-phenylpentyloxy)phenyl]benzimidazole-5-carboxylic acid] | 300 |
| O=C(O)c1ccc2c(c1)nc(-c1ccc(OCc3ccccc3Cl)cc1)n2C1CCCC1 [Example 54, 2-[4-(2-chlorobenzyloxy)phenyl]-1-cyclopentylbenzimidazole-5-carboxylic acid] | 560 |
